From ChEMBL document CHEMBL5465560, “Selectivity Literature for EUbOPEN Chemogenomic Library” (2024)

Experiments:
[1] = target: T1, Serine/threonine-protein kinase ULK3 (Homo sapiens) (UniProt Q6PHR2); assay: Selectivity interaction (KinomeScan (DiscoverX)) EUB0000655a ULK3; conditions: at 10 µM
T1 sequence (whole entry): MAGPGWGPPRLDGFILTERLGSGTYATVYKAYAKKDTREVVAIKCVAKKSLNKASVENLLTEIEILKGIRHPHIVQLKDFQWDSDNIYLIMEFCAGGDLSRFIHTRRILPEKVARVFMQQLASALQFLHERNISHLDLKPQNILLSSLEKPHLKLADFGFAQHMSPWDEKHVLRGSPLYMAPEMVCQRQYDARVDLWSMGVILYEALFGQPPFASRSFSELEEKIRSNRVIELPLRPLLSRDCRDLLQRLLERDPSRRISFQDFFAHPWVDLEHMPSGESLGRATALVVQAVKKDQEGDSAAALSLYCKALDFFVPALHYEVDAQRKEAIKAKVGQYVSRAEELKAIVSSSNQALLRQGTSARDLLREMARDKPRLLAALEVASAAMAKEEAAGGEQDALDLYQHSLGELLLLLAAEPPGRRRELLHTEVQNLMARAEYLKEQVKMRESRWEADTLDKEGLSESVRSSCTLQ

[2] = target: Serine/threonine-protein kinase tousled-like 2 (Homo sapiens) (UniProt Q86UE8); assay: Selectivity interaction (ProQinase) EUB0000171b TLK2
Chain of Serine/threonine-protein kinase tousled-like 2 (Homo sapiens) (Q86UE8 whole entry, looked up): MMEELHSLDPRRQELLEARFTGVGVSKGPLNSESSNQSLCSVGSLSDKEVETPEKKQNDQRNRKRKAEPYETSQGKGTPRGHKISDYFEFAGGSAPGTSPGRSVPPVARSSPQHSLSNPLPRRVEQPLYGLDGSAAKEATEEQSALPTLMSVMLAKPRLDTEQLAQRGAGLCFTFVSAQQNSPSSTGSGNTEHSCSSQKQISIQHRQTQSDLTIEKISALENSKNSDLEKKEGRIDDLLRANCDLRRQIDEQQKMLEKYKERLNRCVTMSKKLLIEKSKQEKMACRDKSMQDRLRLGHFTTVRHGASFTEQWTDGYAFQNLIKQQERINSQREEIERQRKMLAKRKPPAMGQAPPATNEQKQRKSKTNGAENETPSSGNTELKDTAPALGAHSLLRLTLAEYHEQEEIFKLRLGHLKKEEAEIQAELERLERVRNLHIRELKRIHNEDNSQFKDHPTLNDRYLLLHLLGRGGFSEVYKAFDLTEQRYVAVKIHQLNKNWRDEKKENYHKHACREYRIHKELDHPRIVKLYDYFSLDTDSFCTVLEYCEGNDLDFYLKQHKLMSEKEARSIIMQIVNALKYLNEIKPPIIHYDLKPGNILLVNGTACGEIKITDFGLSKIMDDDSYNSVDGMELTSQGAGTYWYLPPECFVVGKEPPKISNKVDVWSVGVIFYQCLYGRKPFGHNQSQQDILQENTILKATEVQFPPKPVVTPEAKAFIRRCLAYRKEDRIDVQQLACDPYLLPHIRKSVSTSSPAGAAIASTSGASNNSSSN

[3] = target: Tyrosine-protein kinase Lck (Homo sapiens, UniProt P06239); assay: Selectivity interaction (Kinase panel (KiNativ target engagement assay in Jurkat cells)) EUB0001635a LCK; type: cell-based; conditions: Selectivity number of off-targets 0.0, Selectivity number of targets 233.0, Source Knowledge https://www.sciencedirect.com/science/article/pii/S2451945619300674?via%3Dihub, at 1 µM
[4] = target: Serine/threonine-protein kinase PRP4 homolog (Homo sapiens) (UniProt Q13523); assay: Selectivity interaction (Kinase panel (KiNativ target engagement assay in Jurkat cells)) EUB0001635a PRPF4; type: cell-based; conditions: Selectivity number of off-targets 0.0, Selectivity number of targets 233.0, Source Knowledge https://www.sciencedirect.com/science/article/pii/S2451945619300674?via%3Dihub, at 1 µM
Chain of Serine/threonine-protein kinase PRP4 homolog (Homo sapiens) (Q13523 whole entry): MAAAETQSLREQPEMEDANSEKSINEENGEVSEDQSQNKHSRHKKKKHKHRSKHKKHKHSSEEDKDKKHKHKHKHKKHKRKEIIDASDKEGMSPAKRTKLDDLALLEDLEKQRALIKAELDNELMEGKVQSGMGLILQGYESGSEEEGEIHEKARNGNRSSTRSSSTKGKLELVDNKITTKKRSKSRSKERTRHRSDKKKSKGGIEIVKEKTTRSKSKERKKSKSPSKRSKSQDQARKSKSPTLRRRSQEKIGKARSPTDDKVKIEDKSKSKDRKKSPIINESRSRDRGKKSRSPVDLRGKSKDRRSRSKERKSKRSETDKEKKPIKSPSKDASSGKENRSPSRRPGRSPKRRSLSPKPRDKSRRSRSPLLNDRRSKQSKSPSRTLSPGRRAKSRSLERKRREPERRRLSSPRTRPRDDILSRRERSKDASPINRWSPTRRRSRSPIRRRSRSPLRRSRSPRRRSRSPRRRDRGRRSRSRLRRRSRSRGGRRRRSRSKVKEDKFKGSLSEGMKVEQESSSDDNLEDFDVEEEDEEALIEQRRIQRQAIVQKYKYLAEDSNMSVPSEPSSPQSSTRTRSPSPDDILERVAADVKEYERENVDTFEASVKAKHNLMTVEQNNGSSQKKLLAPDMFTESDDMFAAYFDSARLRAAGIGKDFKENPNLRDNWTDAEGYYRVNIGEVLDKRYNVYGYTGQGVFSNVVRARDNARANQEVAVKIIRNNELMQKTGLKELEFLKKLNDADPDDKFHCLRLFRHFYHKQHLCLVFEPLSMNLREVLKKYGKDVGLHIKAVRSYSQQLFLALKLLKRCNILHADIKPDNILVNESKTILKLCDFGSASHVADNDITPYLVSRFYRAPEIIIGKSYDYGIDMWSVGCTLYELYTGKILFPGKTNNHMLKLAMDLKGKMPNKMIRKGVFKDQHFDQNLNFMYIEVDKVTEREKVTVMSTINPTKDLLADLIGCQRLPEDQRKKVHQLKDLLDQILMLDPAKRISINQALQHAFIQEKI

[5] = target: T2, Serine/threonine-protein kinase ULK2 (Homo sapiens) (UniProt Q8IYT8); conditions: at 10 µM
T2 sequence (whole entry): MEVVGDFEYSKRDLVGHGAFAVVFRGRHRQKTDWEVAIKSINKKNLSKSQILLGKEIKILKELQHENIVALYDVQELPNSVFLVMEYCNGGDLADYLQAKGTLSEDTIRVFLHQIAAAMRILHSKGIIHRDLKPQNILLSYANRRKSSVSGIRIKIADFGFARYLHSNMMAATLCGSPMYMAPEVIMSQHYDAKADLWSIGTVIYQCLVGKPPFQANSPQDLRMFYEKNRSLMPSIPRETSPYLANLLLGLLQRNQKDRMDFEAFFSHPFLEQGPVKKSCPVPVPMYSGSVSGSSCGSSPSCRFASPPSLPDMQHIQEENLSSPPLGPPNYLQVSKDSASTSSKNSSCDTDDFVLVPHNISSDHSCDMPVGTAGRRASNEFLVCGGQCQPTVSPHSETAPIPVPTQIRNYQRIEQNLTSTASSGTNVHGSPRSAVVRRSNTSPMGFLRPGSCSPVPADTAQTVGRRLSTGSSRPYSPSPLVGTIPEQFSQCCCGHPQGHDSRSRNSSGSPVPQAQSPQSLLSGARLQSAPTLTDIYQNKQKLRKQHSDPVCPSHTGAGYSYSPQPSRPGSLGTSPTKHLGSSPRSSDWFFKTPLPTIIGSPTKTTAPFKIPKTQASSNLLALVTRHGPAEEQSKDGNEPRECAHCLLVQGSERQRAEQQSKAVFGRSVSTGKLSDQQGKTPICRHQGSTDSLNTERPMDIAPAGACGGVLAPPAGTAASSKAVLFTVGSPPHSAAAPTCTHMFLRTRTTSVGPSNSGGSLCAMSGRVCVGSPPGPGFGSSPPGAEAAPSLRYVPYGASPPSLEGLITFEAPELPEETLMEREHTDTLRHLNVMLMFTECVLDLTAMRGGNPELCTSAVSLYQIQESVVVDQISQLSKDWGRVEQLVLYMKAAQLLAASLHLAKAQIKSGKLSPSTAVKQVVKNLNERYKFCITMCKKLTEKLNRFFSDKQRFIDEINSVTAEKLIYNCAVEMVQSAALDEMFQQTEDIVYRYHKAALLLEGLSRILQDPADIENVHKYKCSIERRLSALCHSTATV

[6] = target: Maternal embryonic leucine zipper kinase (Homo sapiens) (UniProt Q14680); assay: Selectivity interaction (Kinase panel (Z-LYTE Assay)) EUB0001632a MELK; conditions: at 10 µM
[7] = target: Ribosomal protein S6 kinase alpha-3 (Homo sapiens, UniProt P51812); assay: Selectivity interaction (KinomeScan (DiscoverX)) EUB0000311b RPS6KA3; conditions: at 1 µM
[8] = target: Tyrosine-protein kinase Fer (Homo sapiens) (UniProt P16591); assay: Selectivity interaction (ActivX KiNativ screen (kinase selectivity in THP-1 cell lysates)) EUB0000639a FER; type: subcellular; conditions: lysate, at 0.2 µM
Chain of Tyrosine-protein kinase Fer (Homo sapiens) (P16591 whole entry, looked up): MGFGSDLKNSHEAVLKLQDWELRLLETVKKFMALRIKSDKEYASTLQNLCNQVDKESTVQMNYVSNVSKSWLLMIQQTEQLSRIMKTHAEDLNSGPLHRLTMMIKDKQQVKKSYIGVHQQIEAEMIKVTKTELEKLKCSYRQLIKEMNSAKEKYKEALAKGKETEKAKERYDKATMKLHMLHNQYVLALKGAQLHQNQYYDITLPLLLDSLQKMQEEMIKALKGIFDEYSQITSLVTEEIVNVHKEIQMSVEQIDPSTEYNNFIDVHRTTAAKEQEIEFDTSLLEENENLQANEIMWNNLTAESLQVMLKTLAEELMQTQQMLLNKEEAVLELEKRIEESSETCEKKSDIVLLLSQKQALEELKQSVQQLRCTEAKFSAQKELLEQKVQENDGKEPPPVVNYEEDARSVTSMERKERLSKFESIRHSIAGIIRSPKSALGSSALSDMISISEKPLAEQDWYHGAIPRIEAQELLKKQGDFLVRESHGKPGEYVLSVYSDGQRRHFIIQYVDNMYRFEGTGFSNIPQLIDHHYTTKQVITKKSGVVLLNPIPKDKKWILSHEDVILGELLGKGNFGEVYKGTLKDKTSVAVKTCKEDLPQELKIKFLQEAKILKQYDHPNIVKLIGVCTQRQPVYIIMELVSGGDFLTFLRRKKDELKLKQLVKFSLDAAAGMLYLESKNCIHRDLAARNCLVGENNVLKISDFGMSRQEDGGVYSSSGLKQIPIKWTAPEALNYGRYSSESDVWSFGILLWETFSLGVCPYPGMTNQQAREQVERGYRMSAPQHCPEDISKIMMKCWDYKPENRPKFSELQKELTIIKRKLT

[9] = target: Mitogen-activated protein kinase kinase kinase kinase 1 (Homo sapiens) (UniProt Q92918); assay: Selectivity interaction (ActivX KiNativ screen (kinase selectivity in THP-1 cell lysates)) EUB0000639a MAP4K1; type: subcellular; conditions: lysate, at 1 µM
[10] = target: Serine/threonine-protein kinase PLK1 (Homo sapiens, UniProt P53350); assay: Selectivity interaction (Kinase panel (Invitrogen)) EUB0000639a PLK1; conditions: at 200 nM
[11] = target: Tyrosine-protein kinase receptor UFO (Homo sapiens) (UniProt P30530); assay: Selectivity interaction (KinomeScan (DiscoverX)) EUB0000607a AXL; conditions: at 10 µM
[12] = target: Casein kinase II subunit alpha (Homo sapiens, UniProt P68400); assay: Selectivity interaction (KinomeScan (DiscoverX)) EUB0001049a CSNK2A1; conditions: at 1 µM
[13] = target: Protein kinase C delta type (Homo sapiens) (UniProt Q05655); assay: Selectivity interaction (KinomeScan (DiscoverX)) EUB0001049a PRKCD; conditions: at 1 µM
[14] = target: Serine/threonine-protein kinase pim-2 (Homo sapiens, UniProt Q9P1W9); assay: Selectivity interaction (KinomeScan (DiscoverX)) EUB0001049a PIM2; conditions: at 1 µM
[15] = target: Phosphatidylinositol 4,5-bisphosphate 3-kinase catalytic subunit beta isoform (Homo sapiens) (UniProt P42338); assay: Selectivity interaction (KinomeScan (DiscoverX)) EUB0000045b PIK3CB
Chain of Phosphatidylinositol 4,5-bisphosphate 3-kinase catalytic subunit beta isoform (Homo sapiens) (P42338 whole entry, looked up, canonical isoform): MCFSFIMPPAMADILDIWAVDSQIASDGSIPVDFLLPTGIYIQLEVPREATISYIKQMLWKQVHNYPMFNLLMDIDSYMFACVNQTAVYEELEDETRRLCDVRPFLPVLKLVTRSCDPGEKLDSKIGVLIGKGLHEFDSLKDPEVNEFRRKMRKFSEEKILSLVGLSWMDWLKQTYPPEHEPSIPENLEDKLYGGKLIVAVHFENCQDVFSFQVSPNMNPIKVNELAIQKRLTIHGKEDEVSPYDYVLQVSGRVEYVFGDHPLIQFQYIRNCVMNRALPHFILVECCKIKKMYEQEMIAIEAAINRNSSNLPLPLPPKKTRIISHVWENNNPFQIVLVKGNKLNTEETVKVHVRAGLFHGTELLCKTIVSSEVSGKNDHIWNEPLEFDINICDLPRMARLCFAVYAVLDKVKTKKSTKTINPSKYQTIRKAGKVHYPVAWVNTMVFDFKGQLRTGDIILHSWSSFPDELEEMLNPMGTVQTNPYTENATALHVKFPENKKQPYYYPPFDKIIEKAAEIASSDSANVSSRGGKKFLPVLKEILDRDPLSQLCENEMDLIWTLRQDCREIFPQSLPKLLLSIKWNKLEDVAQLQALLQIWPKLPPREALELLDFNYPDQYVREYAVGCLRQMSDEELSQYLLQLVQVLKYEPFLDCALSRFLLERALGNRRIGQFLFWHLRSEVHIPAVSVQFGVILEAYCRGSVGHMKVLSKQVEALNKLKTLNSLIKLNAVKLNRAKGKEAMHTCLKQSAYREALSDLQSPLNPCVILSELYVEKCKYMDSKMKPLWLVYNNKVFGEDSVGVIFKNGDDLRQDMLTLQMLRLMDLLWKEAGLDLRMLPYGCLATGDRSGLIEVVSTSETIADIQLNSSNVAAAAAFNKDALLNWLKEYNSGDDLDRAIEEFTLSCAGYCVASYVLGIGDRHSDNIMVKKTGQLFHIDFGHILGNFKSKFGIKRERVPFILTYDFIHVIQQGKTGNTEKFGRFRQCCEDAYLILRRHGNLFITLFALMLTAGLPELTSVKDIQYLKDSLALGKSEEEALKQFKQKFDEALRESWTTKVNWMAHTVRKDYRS

[16] = target: Serine/threonine-protein kinase tousled-like 2 (Homo sapiens) (UniProt Q86UE8); assay: Selectivity interaction (ActivX KiNativ screen (ex vivo kinase selectivity in human PBMCs)) EUB0001619a TLK2; type: cell-based; conditions: PBMC, at 1 µM
[17] = target: Tyrosine-protein kinase Fes/Fps (Homo sapiens) (UniProt P07332); assay: Selectivity interaction (ActivX KiNativ screen (ex vivo kinase selectivity in human PBMCs)) EUB0001619a FES; type: cell-based; conditions: PBMC, at 1 µM
Chain of Tyrosine-protein kinase Fes/Fps (Homo sapiens) (P07332 whole entry, canonical isoform): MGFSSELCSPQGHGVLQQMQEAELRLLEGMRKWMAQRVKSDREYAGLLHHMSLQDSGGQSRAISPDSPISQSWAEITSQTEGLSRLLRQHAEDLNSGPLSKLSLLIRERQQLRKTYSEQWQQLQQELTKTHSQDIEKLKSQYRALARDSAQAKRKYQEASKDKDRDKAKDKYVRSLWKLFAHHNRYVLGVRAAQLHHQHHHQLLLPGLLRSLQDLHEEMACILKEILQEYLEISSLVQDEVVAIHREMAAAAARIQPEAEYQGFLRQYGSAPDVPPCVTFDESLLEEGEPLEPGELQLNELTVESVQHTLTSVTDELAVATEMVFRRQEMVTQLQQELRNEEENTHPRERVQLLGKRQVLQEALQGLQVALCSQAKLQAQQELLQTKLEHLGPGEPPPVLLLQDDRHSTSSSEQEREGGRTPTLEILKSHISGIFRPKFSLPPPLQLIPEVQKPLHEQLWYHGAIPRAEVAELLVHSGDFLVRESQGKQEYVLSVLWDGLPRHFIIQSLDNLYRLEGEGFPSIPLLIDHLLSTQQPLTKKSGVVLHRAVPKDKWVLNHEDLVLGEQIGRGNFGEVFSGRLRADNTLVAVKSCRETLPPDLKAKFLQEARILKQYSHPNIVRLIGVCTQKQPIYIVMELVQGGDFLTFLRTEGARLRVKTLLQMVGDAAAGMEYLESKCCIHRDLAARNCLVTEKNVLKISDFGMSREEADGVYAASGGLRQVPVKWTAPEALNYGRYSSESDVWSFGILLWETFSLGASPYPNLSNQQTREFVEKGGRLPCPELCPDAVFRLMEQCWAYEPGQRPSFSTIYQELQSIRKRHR

[18] = target: Casein kinase I isoform alpha (Homo sapiens, UniProt P48729); assay: Selectivity interaction (KinomeScan (DiscoverX)) EUB0001619a CSNK1A1; conditions: at 1 µM
Chain of Casein kinase I isoform alpha (P48729 2-337 limits assumed): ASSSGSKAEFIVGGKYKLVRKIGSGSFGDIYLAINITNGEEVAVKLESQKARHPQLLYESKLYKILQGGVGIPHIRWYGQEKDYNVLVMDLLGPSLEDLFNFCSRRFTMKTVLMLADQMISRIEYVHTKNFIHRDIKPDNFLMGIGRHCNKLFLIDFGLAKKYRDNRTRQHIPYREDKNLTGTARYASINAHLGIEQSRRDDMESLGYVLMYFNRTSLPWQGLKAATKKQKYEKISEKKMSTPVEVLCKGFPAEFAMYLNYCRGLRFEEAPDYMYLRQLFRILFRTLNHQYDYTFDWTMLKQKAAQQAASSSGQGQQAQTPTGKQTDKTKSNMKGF

## CN(C)CCOc1ccc(-c2nc(-c3ccncc3)c(-c3ccc4c(c3)CC/C4=N\O)[nH]2)cc1
[1]
  % of control: 88%

## C=CC(=O)Nc1cccc(C(=O)Nc2ccc(Nc3cc(-c4[nH]c(SC)nc4C)ccn3)cc2)c1
[2]; at 1 µM
  % of control: 92%
[2]; at 5 µM
  % of control: 83%

## C=CC(=O)Nc1ccc(C(=O)Nc2[nH]nc3c2CN(C(=O)N[C@H](CN(C)C)c2ccccc2)C3(C)C)cc1
[3]
  % of engagement: -3.6%
[4]
  % of engagement: -13.3%

## Cc1cc([C@@H](C)Nc2ccccc2C(=O)O)c2nc(N3CCOCC3)cc(=O)n2c1 [AZD-6482]
[5]
  % of control: 100%

## Cn1cc(-n2cnc3c(NCc4nc5cc(Cl)c(Cl)cc5[nH]4)nc(N4CCOCC4)nc32)cn1
[6]
  % of control: 26.9%

## CCc1ccccc1C(=O)Nc1n[nH]c2c(C)c(F)c(C3C(C#N)=C(C)N(C)C(C)=C3C#N)cc12 [BAY-3827]
[7]
  % of control: 0.3%

## CC[C@@H]1[C@H](F)C(=O)N[C@@H]1COc1nccc2cc(C(N)=O)c(OC)cc12 [ZIMLOVISERTIB]
[8]
  % of inhibition: -7.1%
[9]
  % of inhibition: -17.4%
[10]
  % of inhibition: 4.41%

## CNC(=O)Nc1ccc(-c2nc(N3CC4CCC(C3)O4)c3cnn(C4CCC5(CC4)OCCO5)c3n2)cc1
[11]
  % of control: 88%

## COc1cc(Nc2nc(C)cc(-c3cnn4nc(OC)ccc34)n2)cc(C(F)(F)F)c1
[12]
  % of control: 83%
[13]
  % of control: 97%
[14]
  % of control: 95%

## C=CC(=O)Nc1cc(-n2c(=O)ccc3cnc4ccc(-c5ccc(NS(C)(=O)=O)cc5)cc4c32)ccc1C
[15]; at 1 µM
  % of control: 75%
[15]; at 10 µM
  % of control: 44%

## N#Cc1cccc(-c2c[nH]c3ncnc(N4CCOCC4)c23)c1
[16]
  % of inhibition: -21%
[17]
  % of inhibition: 2%
[18]
  % of control: 100%
